Results: US20110289043A1, “COMPUTATIONAL METHODS AND COMPOSITIONS” (Brown University Research Foundation, priority 2010, published 2011)

Assays:
[1] = tested on: P. falciparum-infected RBCs (iRBCs) and co-cultured uninfected RBCs (uRBCs); test: Microfluidic deformability (cell mobility) of RBCs after artesunate drug treatment; assay type: cell-based, human; details: for separation resolution between iRBCs and uRBCs: after artesunate drug treatment; for effect on RBC deformability (cell mobility): artesunate 0.01 to 0.1 μg/ml, 2, 4 and 6 hours
Procedure: FIG. 60 provides cell mobility plots for both infected cells (shown by diamond symbols) and co-cultured uninfected cells (shown by circle symbols) with and without Artesunate drug treatment. The drug effect was traced at 2, 4 and 6 hours after drug treatment. Measurements were done at physiologically relevant dosage from 0.01 to 0.1 μg/ml.
The deformability of both iRBCs and uRBCs were measured at 2, 4 and 6 hours after artesunate drug treatment (FIG. 60). A synchronized culture of rings with ˜15% parasitemia was resuspended at 0.1% hematocrit in malaria culture medium containing 0.01, 0.05 or 0.1 μg/ml of artesunate.
P. falciparum 3D7A parasites (from Malaria Research and Reference Reagent Source, American Type Culture Collection) were cultured in leukocyte-free human RBCs (Research Blood Components, Brighton Mass.) in RPMI 1640 complete medium as described (Trager and Jensen J. parasitol. 2005). Parasites cultures were synchronized by sorbitol lysis (Lambros, C 1979 J. parasitol.) two hours after merozoite invasion.
1× Phosphate buffered saline (PBS) was mixed with 1% w/v Bovine Serum Albumin (BSA) (Sigma-Aldrich, St. Louis, Mo.) as a stock solution and was fresh made on every experimental day. For experiments tracking fluid flow velocity, 200 nm FluoSpheres europium luminescent microspheres (Molecular Probes, Eugene, Oreg.) were used at a final concentration of 5.0×10^−4 percent solids. For experiments involving only healthy RBCs, fresh whole blood (Research Blood Components, Brighton, Mass.) was used at 100 times dilution (i.e. 1 μl whole blood with 99 μl stock solution). For experiments involving parasitized cells, 1 ml of cultured cells were spun down at 1,000 rpm for 5 minute; 1 μl of the pellet was then aliquot to 200 μl stock solution.
10 μl of 1×10^−6M thiazole orange Orange (Invitrogen, Carlsbad, Calif.), which stains the RNA of the cell, was added to the aforementioned 200 μl iRBC solution 20 minutes before the experiment. The infected cells would appear fluorescent under the GFP filter set whereas the uninfected cells were seen as dark shadows.
To control the ambient temperature, the microscope surface was replaced by a heating chamber (Olympus), which was preheated to a desired temperature range (i.e. 30-40° C.) for 30 minutes before the beginning of every experiment. Meanwhile, the PBS-BSA stock solution was injected into the device to coat the PDMS walls to prevent adhesion. This filling step need not be done inside the heating chamber, but the PBS-BSA filled device needed to be placed into the heating chamber at least 5 minutes before loading 10 μL of diluted blood sample. During temperature calibration phase, a thermal meter was used to probe the exact temperature inside the heating chamber. When the temperature needed to be adjusted to a different value, at least 5 minutes of waiting time was required to ensure a new stable ambient temperature.
To apply a constant pressure gradient across the device, the pressure difference between inlet and outlet reservoir was generated hydrostatically by fixing the difference between inlet and outlet water column height (FIG. 55A).
To capture the movement of RBCs inside the microchannels, a CCD camera (Hamamatsu Photonics, C4742-80-12AG, Japan) was connected to the inverted fluorescent microscope (Olympus IX71, Center Valley, Pa.). Images were automatically acquired by IPLab (Scanalytics, Rockville, Md.) at 100 ms time interval and the post-imaging analysis was done using imageJ. The mobility of individual RBCs was defined as the distance the cells moved divide by the time in seconds.

[2] = tested on: RBCs; test: Deformability cytometer: velocity/passage of glutaraldehyde-treated RBCs through constriction channels; assay type: cell-based, human
Procedure: FIG. 5B depicts the results of an experiment evaluating the velocity at different glutaraldehyde concentrations of RBCs moving through the two pore geometries. RBCs were treated with the indicated concentrations of glutaraldehyde for 30 minutes in PBS and then washed 3 times. The pressure difference/length was approximately 0.61 Pa/μm.
PBS was mixed with 0.2% w/v Pluronic F-108 (BASF, Mount Olive, N.J.) and 1% w/v Bovine Serum Albumin (BSA) (Sigma-Aldrich, St. Louis, Mo.) as a stock solution to prevent RBC adhesion to the device walls. For the fluorescent bead experiments, 200 nm FluoSpheres europium luminescent microspheres (Molecular Probes, Eugene, Oreg.) diluted to a final concentration of 1.25×10^−5 percent solids were used.
In experiments involving blood, 1 μl of whole blood (−50% hematocrit) was diluted in 100 μl of the PBS-pluronic-BSA solution for all of the experiments. In experiments involving parasites that express GFP, no further treatment was performed. In experiments involving healthy RBCs, 1 μl of whole blood (Research Blood Components, Brighton, Mass.), 1 μl of 50 μg/ml of Cell Tracker Orange (Invitrogen, Carlsbad, Calif.), and 98 μl of PBS were mixed with the indicated concentration of glutaraldehyde and allowed to sit for 30 minutes. The sample was then washed 3 times with the PBS-Pluronic-BSA solution. In experiments involving reticulocytes, 1 μl of whole blood, 89 μl of the PBS-Pluronic-BSA solution, and 10 μl of 1×10^−6M thiazole orange were mixed and allowed to sit for 20 minutes before starting experiments. Videos were obtained in which reticulocytes appear as uniformly fluorescent cells under the GFP filter set, while mature RBCs appear as shadows.
The PBS-Pluronic-BSA solution was pumped through the device for 30 minutes to coat the device walls with Pluronic and BSA. The RBC-PBS-Pluronic-BSA suspension was then injected into the device. Differences in pressure between the two reservoirs were generated hydrostatically by a difference in water column height. […]

[3] = tested on: WT T cells; test: FACS analysis of phenotype of T cells induced to migrate by CCL19; assay type: cell-based, mouse; details: after CCL19 exposure (100 ng/mL) for seven hours
Procedure: FIG. 68 depicts results of a FACS analysis of phenotype of naïve WT T cells induced to migrate by the chemokine CCL19. T cells were first gated on PI to exclude dead cells. The cell samples tested were naïve T cells not exposed to CCL 19 (A, D), cells that remained in the insert after CCL19 exposure (100 ng/mL) for seven hours (B, E), and cells that migrated across the insert membrane after the same chemokine treatment (C, F).
(§1) Cells from the peripheral lymph nodes and the spleen of Balb/c mice and WAS−/− mice on Balb/c background were pooled and enriched using the EasySep Mouse CD8+ T Cell Enrichment Kit from STEMCELL Technologies (British Columbia, Canada). Enrichment was confirmed using fluorescence-activated cell sorting (FACS) by staining the cells with FITC/anti-Thy1.2 and PE/anti-CD8α antibodies (Abs). The memory T cell population was assessed by evaluating the expression of CD44 and CD62L via FACS. T cells in an activation medium with 100 units/mL IL-2 and 1% anti-CD28 Ab were activated by plate-bound anti-CD3 Abs for 4 day at 37° C. The activation medium included RPMI with 10% FBS, 10 mM HEPES (1M), 1% NEAA, 1% sodium pyruvate (100 mM), 50 μM (β-mercaptoethanol, 4 mM L-glutamine, and 100 μg/mL Pen/Strep. Cell activation was verified via FACS measurement of CD25.

[4] = tested on: WAS−/− T cells; test: In vitro Transwell cell migration toward CCL19; assay type: cell-based, mouse; details: after seven hours of exposure to CCL19 (100 ng/mL), 5-μm pore Transwell
Procedure: as §1, with “CD25. Enriched WT and WAS−/− T cells in DMEM with 1% BSA and 0.1% Pen/Strep were induced to migrate through polycarbonate Transwell inserts (Costar, Cambridge, Mass.) with 5-μm pores in a 24-well plate toward a CCL19 chemokine source (R&D Systems, Minneapolis, Minn.). Inserts contained 5×10^5 cells in 100 μL of medium, and wells contained 1 mL of medium with either no CCL19 or 100 ng/mL of CCL19. Cells were allowed to migrate for ˜7 hours at 37° C., and those that crossed the membrane were collected and used for MPA studies.” for “CD25.”

[5] = tested on: WT T cells; test: Micropipette aspiration of CCL19-stimulated migratory T cells; assay type: cell-based, mouse
Procedure: Enriched WT and WAS−/− T cells in DMEM with 1% BSA and 0.1% Pen/Strep were induced to migrate through polycarbonate Transwell inserts (Costar, Cambridge, Mass.) with 5-μm pores in a 24-well plate toward a CCL19 chemokine source (R&D Systems, Minneapolis, Minn.). Inserts contained 5×10^5 cells in 100 μL of medium, and wells contained 1 mL of medium with either no CCL19 or 100 ng/mL of CCL19. Cells were allowed to migrate for ˜7 hours at 37° C., and those that crossed the membrane were collected and used for MPA studies.
3×10^5 cells in 100 μL RPMI with 10% FBS and 1% HEPES was stained with 10 μL trypan blue. The mixture was added to 600 μL of either the RPMI medium or the T cell activation medium with IL-2 for naïve and activated T cell testing. Migratory T cells were tested in the medium used for migration. The MPA device was based on the design of Hochmuth et al (18). The aspiration rate and volume were 36 mL/hr and 2 mL, corresponding to a total pressure of ˜400 Pa. The cell movement in the micropipette was recorded with a CCD camera. Aspirations were performed at approximately room temperature.
MPA data were fitting using the half-space model (77) described by the expressions: […]

## C[C@H]1[C@H](OC(=O)CCC(=O)O)O[C@@H]2O[C@@]3(C)CC[C@H]4[C@H](C)CC[C@@H]1[C@@]24OO3 [artesunate]
[1]; 2 and 4 hours after artesunate treatment
  mobility decrease: smaller and less pronounced mobility decrease
[1]; 6 hours after artesunate treatment, 0.01, 0.05 or 0.1 μg/ml
  mobility decrease: 30%-50%
[1]
  separation resolution between iRBCs and uRBCs: almost doubled
  effect on RBC deformability (cell mobility): stiffening effect on both iRBCs and uRBCs
[1]; listed as Artesunate
  separation resolution between iRBCs and uRBCs: doubled
  effect on RBC deformability (cell mobility): significant decrease in cell mobility

## O=CCCCC=O [glutaraldehyde]
[2]; 30 minutes treatment in PBS, approximately 0.61 Pa/μm
  RBC stiffness / velocity with increasing glutaraldehyde concentration: progressively stiffer with decreasing velocity
[2]; glutaraldehyde concentrations greater than 0.003%
  RBC passage at high glutaraldehyde concentration: most RBCs were held up at the entrance to the channel
[2]; glutaraldehyde concentrations less than 0.002%, treatment for 30 minutes
  RBCs passed through the channels: more than 95%

B1: CCL19: chemokine (R&D Systems) used as chemoattractant for T cells (protein, UniProt Q99731 22-98, looked up)
C-C motif chemokine 19: GTNDAEDCCLSVTQKPIPGYIVRNFHYLLIKDGCRVPAVVFTTLRGRQLCAPPDQPWVERIIQRLQRTSAKMKRRSS
[3]
  migrating cells stained CD62L high and CD44 low (naive phenotype): ~90%
[4]
  cells migrated: ~6.4%
[5]
  reduction of modulus from the value measured in the absence of CCL19: more than 2 times
